Experiments:
[1] = system: ovarian cancer ID-8 cell line in situ transplanted tumor; assay: Mouse ovarian cancer in situ transplanted tumor model (ID-8); type: in vivo, C57/6 mouse; settings: as high as; SMI0 30 mg/kg ig daily, 60-day modeling
Description: Experimental method: A female C57/6 mouse ovarian cancer in situ transplanted tumor model was constructed with a murine ovarian cancer ID-8 cell line at a cell concentration of 1×10^6. A model group and an SMI0 intervention group were set for the experiment. The intervention group was intragastrically administered with the SMI0 compound at 30 mg/kg every day from three days before modeling to the end of the 60-day modeling (model group, n=15; and SMI0 compound (30 mg/kg) group, n=12). At the end of the experiment, blood was collected from the orbit, a body weight was measured, then the mice each were sacrificed, and ovary tissues and tumor tissues were collected. Ovary tissue specimens were subjected to HE staining, and then the ovary tumor tissue and tumorigenesis of mice in each group were observed.

M2 microglial cells = assay: Inflammatory factor and lipid metabolism gene levels in co-cultivated glial cells (qPCR); type: cell-based, mouse; settings: SMI0 50 μmol/L vs M2 microglial cell co-cultivation group
Description: Experimental method: 10 1-2 d newborn C57BL/6 WT mice and 6 CYP2E1^−/− mice were taken, primary microglial cells and astrocytes were collected and inoculated into 6-well plates, and 24 h later, culture supernatants were taken and co-cultivated with glioma cells. Experimental groups: control group; M2 model group; high-concentration, medium-concentration, and low-concentration SMI0 (50 μmol/L, 12.5 μmol/L, and 3.1 μmol/L) groups; and CYP2E1 gene-knockout group. 24 h later, supernatants were discarded; and […] and IL-13 each were added at 20 ng/mL to induce the transformation of microglial cells into the M2 type in the M2 model group and the high-concentration, medium-concentration, and low-concentration SMI0 groups, and different concentrations of SMI0 (50 μmol/L, 12.5 μmol/L, and 3.1 μmol/L) were also added in the intervention groups. The proliferation of glioma cells was determined by a CCK8 method, and an apoptosis proportion was determined by an Annexin V-FITC-PI apoptosis staining kit.
Experimental method: Astrocytes in the co-cultivation group were collected, RNA was extracted and reverse-transcribed into cDNA, and the changes of inflammatory factor and cholesterol metabolism-associated genes were detected by qPCR.

[2] = system: glioma cell line GL261 brain in situ transplanted tumor; assay: Mouse glioma model, in situ implantation of GL261 cells into the brain; type: in vivo, C57/BL6 mouse
Description: Experimental method: A female C57/BL6 mouse glioma model was constructed through in situ implantation of a glioma cell line GL261, with a cell concentration of 1*10^6. Experimental groups: sham-operated group (n=9); model group (n=10); temozolomide group (50 mg/kg, ig, n=11); SMI0 low-dose group (3.3 mg/kg, ig, n=13); SMI0 medium-dose group (10 mg/kg, ig, n=13); and SMI0 high-dose group (30 mg/kg, ig, n=13). The SMI0 intervention group was intragastrically administered with the compound SMI0 every day starting from three days before modeling, and the positive drug group was administered on day 3 to day 7 and day 10 to day 14 after surgery. The modeling took about 21 days. At the end of the experiment, blood was collected from the orbit, a body weight was measured, then the mice each were sacrificed, and brain tissues were collected. Brain tissue specimens were subjected to HE staining, and then the brain tissue lesion and tumorigenesis of mice in each group were observed.

CYP2E1 = molecular target: T1, CYP2E1 (Mus musculus, UniProt Q05421); assay: CYP2E1 activity (CZX metabolism by liver microsome) in LPS-induced mouse pulmonary fibrosis model; type: in vivo; settings: liver microsome of SMI0 high-dose group vs model group, P<0.05
T1 construct: from tissue; host or cells: liver microsomes of treated model mice (calcium precipitation)
Description: Experimental method: A calcium precipitation method was used to prepare a mouse liver microsome, and a Braford method was used to determine a protein concentration in the microsome. An incubation system was prepared with 2×PBS, a CZX solution, and the liver microsome at a final concentration of 0.5 mg/mL, and then pre-incubated at 37° C. for 5 min; NADPH was added to initiate a reaction, and a resulting mixture was incubated at 37° C. for 30 min and then placed on ice to terminate the reaction; and ethyl acetate was added to extract 6-hydroxychlorzoxazone, a resulting mixture was vortexed and centrifuged, and a resulting upper organic phase was collected and blow-dried with nitrogen. A peak area of a CZX metabolite 6-hydroxychlorzoxazone was detected by HPLC under the following conditions: methanol:water=56:44, and detection wavelength: 287 nm. A concentration A C of the metabolite 6-hydroxychlorzoxazone was calculated through substitution into a standard curve; and a reaction rate of conversion of CZX into 6-hydroxychlorzoxazone was calculated according to V(pmol/min/mg)=(ΔC*1000)/(B*T) to evaluate an enzymatic activity of CYP2E1, where B represents a protein concentration of the microsome (mg/mL) and T represents an incubation time (min). A correlation between a CYP2E1 activity and a pulmonary fibrosis severity in mice was analyzed.

T1 sequence (Q05421 whole entry): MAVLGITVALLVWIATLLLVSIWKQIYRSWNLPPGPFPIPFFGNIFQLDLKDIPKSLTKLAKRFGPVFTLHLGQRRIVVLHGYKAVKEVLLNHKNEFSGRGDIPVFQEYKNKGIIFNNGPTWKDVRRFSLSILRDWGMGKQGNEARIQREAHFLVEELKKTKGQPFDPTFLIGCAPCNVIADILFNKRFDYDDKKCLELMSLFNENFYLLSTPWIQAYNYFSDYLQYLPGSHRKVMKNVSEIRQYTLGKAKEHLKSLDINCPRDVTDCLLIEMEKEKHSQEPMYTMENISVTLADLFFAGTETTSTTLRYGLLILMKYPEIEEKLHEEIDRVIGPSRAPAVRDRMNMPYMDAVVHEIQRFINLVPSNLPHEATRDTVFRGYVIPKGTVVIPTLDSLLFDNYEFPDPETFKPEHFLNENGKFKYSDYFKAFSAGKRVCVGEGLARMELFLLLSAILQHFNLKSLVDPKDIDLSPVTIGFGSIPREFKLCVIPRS

## CC(=O)c1scnc1C [SMI0]
[1]
  ascites weight inhibition rate: 76.40%
  tumor proliferation inhibition rate: 63.14%
M2 microglial cells
  level of IL-4: significantly reduced
  level of IL-10: significantly reduced
  level of IL-13: significantly reduced
  level of the lipid metabolism-associated gene PPAR-α: significantly increased
[2]; SMI0 intervention (3.3, 10, 30 mg/kg ig daily), about 21 days, vs model group
  glioma growth in mice: significantly inhibited
[2]; as high as, SMI0 high-dose group 30 mg/kg ig
  tumor proliferation inhibition rate: 97.6%
CYP2E1
  reaction rate V of CZX metabolism: significantly reduced
